Measured values taken from US6127342A, “Method for preventing or treating a lung disease caused by active oxygen and free radical injury” (Teijin Limited, priority 1991, dated 2000).

Experiments:
Format in all cases: in vivo
[1] = system: liver ischemia-reperfusion model using rats; assay: Liver lipid peroxide concentration (thiobarbiturate method); details: rat; 50 mg/kg i.v.; after 1 hour reperfusion
Procedure: Male Wister rats weighing 250-300 g were fasted with free access to water 24 hours before the experiment. Seventy-two rats were divided into three groups of 24 animals each, i.e., the control group, the GSH administration group and the γ-GCE-administration group. Each rat was anesthetized by intraperitoneal administration of 40 mg/0.8 ml/kg of sodium pentobarbital, and the femoral vein was cannulated. In the GSH group and the γ-GCE group, 50 mg/kg of GSH or γ-GCE respectively were administered intravenously. Physiological saline was then infused for volume replacement in each group, as a continuous intravenous infusion at a rate of 0.8 ml/hr with an injection pump throughout the experiment. Thirty minutes after starting injection of physiological saline, the abdomon was opened by a midline incision and the liver hilus was exposed. […]
Evaluation of ischemia-reperfusion injury was performed by measuring liver tissue (1) mitochondrial function, (2) glutathione concentration, (3) adenine nucleotides concentration, and (4) lipid peroxide concentration, as well as liver tissue derived (5) adenine nucleotides concentration in the hepatic vein immediately after starting reperfusion, and (6) liver cell enzyme activities in the blood after 1 hour of reperfusion. More specifically, the mitochondrial function in (1) was measured according to the method described by Chance, et al. in Adv. […]

[2] = system: liver tissue mitochondria; assay: Liver tissue mitochondrial function in liver ischemia-reperfusion; details: rat, 50 mg/kg i.v. before ischemia, FIGS. 2A and 2B; for effect on recovery of liver mitochondrial function during reperfusion: 1 h reperfusion; for effect on reduction of liver mitochondrial St. III O2 caused by ischemia: 2 h ischemia
Procedure: Male Wister rats weighing 250-300 g were fasted with free access to water 24 hours before the experiment. Seventy-two rats were divided into three groups of 24 animals each, i.e., the control group, the GSH administration group and the γ-GCE-administration group. Each rat was anesthetized by intraperitoneal administration of 40 mg/0.8 ml/kg of sodium pentobarbital, and the femoral vein was cannulated. In the GSH group and the γ-GCE group, 50 mg/kg of GSH or γ-GCE respectively were administered intravenously. Physiological saline was then infused for volume replacement in each group, as a continuous intravenous infusion at a rate of 0.8 ml/hr with an injection pump throughout the experiment. Thirty minutes after starting injection of physiological saline, the abdomon was opened by a midline incision and the liver hilus was exposed. According to the method described by Hasselgren, et al. in J. Surg. Res., Vol. 34, pp. 409-414, 1984, all vessels to the left and median lobes of the liver, more specifically, hepatic artery, portal vein and the bile duct, were clamped to produce an ischemic state for 2 hours. Since blood vessels to the remaining parts of the liver were not occluded by this method, poral stasis could be avoided which was of special relevance for circulation stability in rats. Thereafter, occlusion of all vessels was released by removing the clamp to allow reperfusion for 1 hour. The abdominal walls were closed during ischemia and reperfusion. […]
Evaluation of ischemia-reperfusion injury was performed by measuring liver tissue (1) mitochondrial function, (2) glutathione concentration, (3) adenine nucleotides concentration, and (4) lipid peroxide concentration, as well as liver tissue derived (5) adenine nucleotides concentration in the hepatic vein immediately after starting reperfusion, and (6) liver cell enzyme activities in the blood after 1 hour of reperfusion. More specifically, the mitochondrial function in (1) was measured according to the method described by Chance, et al. in Adv. […] In addition, the quantitative determination of glutathione in (2) was performed using the same method as Experiment 1 on supernatant obtained by adding 10 vol/g of tissue weight of 2.5% (w/v) sulfosalicylic acid dihydrate aqueous solution to the liver tissue followed by homogenization and centrifugation. In addition, the quantitative determination of adenine nucleotides in (3) was performed by neutralizing the perchloric acid extract of the liver tissue with potassium hydroxide followed by removal of the precipitate and applying to an ion exchange HPLC column according to the method described by Sugino, et al. in J. Chromatogr., Vol. 361, pp. 427-431, 1986. […]

[3] = system: liver ischemia-reperfusion model using rats; assay: Glutathione concentration in liver tissue during liver ischemia-reperfusion; details: rat, 50 mg/kg i.v.
Procedure: (§1) Male Wister rats weighing 250-300 g were fasted with free access to water 24 hours before the experiment. Seventy-two rats were divided into three groups of 24 animals each, i.e., the control group, the GSH administration group and the γ-GCE-administration group. Each rat was anesthetized by intraperitoneal administration of 40 mg/0.8 ml/kg of sodium pentobarbital, and the femoral vein was cannulated. In the GSH group and the γ-GCE group, 50 mg/kg of GSH or γ-GCE respectively were administered intravenously. Physiological saline was then infused for volume replacement in each group, as a continuous intravenous infusion at a rate of 0.8 ml/hr with an injection pump throughout the experiment. Thirty minutes after starting injection of physiological saline, the abdomon was opened by a midline incision and the liver hilus was exposed. According to the method described by Hasselgren, et al. in J. Surg. Res., Vol. 34, pp. 409-414, 1984, all vessels to the left and median lobes of the liver, more specifically, hepatic artery, portal vein and the bile duct, were clamped to produce an ischemic state for 2 hours. Since blood vessels to the remaining parts of the liver were not occluded by this method, poral stasis could be avoided which was of special relevance for circulation stability in rats. Thereafter, occlusion of all vessels was released by removing the clamp to allow reperfusion for 1 hour. The abdominal walls were closed during ischemia and reperfusion.
(§2) Using 18 rats in each group, the livers of 6 animals from each group were removed before ischemia, after 2 hours of ischemia, and after 1 hour of reperfusion, respectively. A portion of the liver from each animal was rapidly frozen in liquid nitrogen and used for measurement of glutathione,adenine nucleotides and lipid peroxide. From the remaining portion of the liver, mitochondria was immediately extracted according to the method described by Hogeboom and Schneider in the J. Biol. Chem., Vol. 172, p. 619, 1948. In other experiments, immediately after starting reperfusion, blood from the hepatic vein was collected using 6 rats from each group. These blood samples were then used to measure leaked adenine nucleotides. In addition, after 1 hour of said reperfusion, blood samples were also drawn, which were then used to measure the activity of the leaked liver cell enzymes.
(§3) Evaluation of ischemia-reperfusion injury was performed by measuring liver tissue (1) mitochondrial function, (2) glutathione concentration, (3) adenine nucleotides concentration, and (4) lipid peroxide concentration, as well as liver tissue derived (5) adenine nucleotides concentration in the hepatic vein immediately after starting reperfusion, and (6) liver cell enzyme activities in the blood after 1 hour of reperfusion. More specifically, the mitochondrial function in (1) was measured according to the method described by Chance, et al. in Adv. Enzymol., Vol. 17, p. 65, 1956. In addition, the quantitative determination of glutathione in (2) was performed using the same method as Experiment 1 on supernatant obtained by adding 10 vol/g of tissue weight of 2.5% (w/v) sulfosalicylic acid dihydrate aqueous solution to the liver tissue followed by homogenization and centrifugation. In addition, the quantitative determination of adenine nucleotides in (3) was performed by neutralizing the perchloric acid extract of the liver tissue with potassium hydroxide followed by removal of the precipitate and applying to an ion exchange HPLC column according to the method described by Sugino, et al. in J. Chromatogr., Vol. 361, pp. 427-431, 1986. In addition, the measurement of lipid peroxide in (4) was performed according to the thiobarbiturate method described by Ohkawa, et al. in Anal. Biochem., Vol. 95, p. 351, 1979. […]

[4] = system: liver ischemia-reperfusion model using rats; assay: Adenine nucleotides concentration in liver tissue during liver ischemia-reperfusion; details: rat, 50 mg/kg i.v.; for effect on restoration of liver ATP following reperfusion: 1 hour reperfusion
Procedure: as §1, §2, §3

Structure (SMILES)	Concentration of liver lipid peroxide following reperfusion [1]	effect on recovery of liver mitochondrial function during reperfusion [2]	effect on reduction of liver mitochondrial St. III O2 caused by ischemia [2]	Liver tissue glutathione, GSH + GSSG, after 1 hour reperfusion [3]	Liver tissue glutathione, GSH, after 1 hour reperfusion [3]	Liver tissue glutathione, GSSG, after 1 hour reperfusion [3]	Liver tissue glutathione, GSH + GSSG, after 2 hours ischemia [3]	Liver tissue glutathione, GSH, after 2 hours ischemia [3]	Liver tissue glutathione, GSSG, after 2 hours ischemia [3]	Liver tissue glutathione, GSH + GSSG, before ischemia [3]	Liver tissue glutathione, GSH, before ischemia [3]	Liver tissue glutathione, GSSG, before ischemia [3]	effect on restoration of liver ATP following reperfusion [4]	Liver tissue ADP, after 1 hour reperfusion [4]	Liver tissue AMP, after 1 hour reperfusion [4]	Liver tissue ATP + ADP + AMP, after 1 hour reperfusion [4]	Liver tissue ATP, after 1 hour reperfusion [4]	Liver tissue ADP, after 2 hours ischemia [4]	Liver tissue AMP, after 2 hours ischemia [4]	Liver tissue ATP + ADP + AMP, after 2 hours ischemia [4]	also measured
N[C@@H](CCC(=O)N[C@@H](CS)C(=O)NCC(=O)O)C(=O)O [GSH, reduced glutathione, reference compound]	9.1±2.0 nmol/mg protein	did not show any protective effects whatsoever	did not show any protective effects whatsoever	3.77 ± 0.64 μmol/g of liver wet weight	3.40 ± 0.60 μmol/g of liver wet weight	0.37 ± 0.05 μmol/g of liver wet weight	4.40 ± 0.68 μmol/g of liver wet weight	4.35 ± 0.65 μmol/g of liver wet weight	0.35 ± 0.04 μmol/g of liver wet weight	5.29 ± 0.38 μmol/g of liver wet weight	4.91 ± 0.35 μmol/g of liver wet weight	0.38 ± 0.06 μmol/g of liver wet weight	did not show any promotive effects on the restoration of ATP	0.38 μmol/g wet liver weight	0.15 μmol/g wet liver weight	1.66 μmol/g wet liver weight	1.13 μmol/g wet liver weight	0.13 μmol/g wet liver weight	0.73 μmol/g wet liver weight	0.90 μmol/g wet liver weight	liver glutathione concentration after reperfusion relative to the level prior to ischemia [3]: ~70%; Liver tissue ATP, after 2 hours ischemia [4]: 0.04 μmol/g wet liver weight; Liver tissue ADP, before ischemia [4]: 0.65 μmol/g wet liver weight; Liver tissue AMP, before ischemia [4]: 0.18 μmol/g wet liver weight; Liver tissue ATP + ADP + AMP, before ischemia [4]: 3.40 μmol/g wet liver weight; Liver tissue ATP, before ischemia [4]: 2.57 μmol/g wet liver weight
CCOC(=O)[C@H](CS)NC(=O)CC[C@H](N)C(=O)O [γ-GCE, γ-L-glutamyl-L-cysteine ethyl ester]	6.56±0.6 nmol/mg protein	significantly promoted recovery of mitochondrial function during reperfusion	significantly suppressed reduction of St. III O2 caused by ischemia	5.50 ± 0.26 μmol/g of liver wet weight	4.97 ± 0.25 μmol/g of liver wet weight	0.54 ± 0.09 μmol/g of liver wet weight	5.87 ± 0.43 μmol/g of liver wet weight	5.48 ± 0.42 μmol/g of liver wet weight	0.39 ± 0.01 μmol/g of liver wet weight	6.04 ± 0.35 μmol/g of liver wet weight	5.65 ± 0.30 μmol/g of liver wet weight	0.39 ± 0.07 μmol/g of liver wet weight	significantly promoted restoration of ATP following reperfusion	0.38 μmol/g wet liver weight	0.12 μmol/g wet liver weight	2.21 μmol/g wet liver weight	1.70 μmol/g wet liver weight	0.17 μmol/g wet liver weight	0.87 μmol/g wet liver weight	1.10 μmol/g wet liver weight	decrease of liver glutathione concentration throughout the experiment [3]: no significant decrease was observed throughout the experiment; liver glutathione concentration compared with control group or GSH administration group ([3]; throughout the experiment): significantly higher; effect on the reduction of liver ATP caused by ischemia ([4]; 2 hours ischemia): did not show any effects on the reduction of ATP caused by ischemia; Liver tissue ATP, after 2 hours ischemia [4]: 0.06 μmol/g wet liver weight; Liver tissue ADP, before ischemia [4]: 0.57 μmol/g wet liver weight; Liver tissue AMP, before ischemia [4]: 0.13 μmol/g wet liver weight; Liver tissue ATP + ADP + AMP, before ischemia [4]: 3.39 μmol/g wet liver weight; Liver tissue ATP, before ischemia [4]: 2.69 μmol/g wet liver weight
